Experimental findings from patent US8912121B2, “Herbicidal compositions comprising 4-amino-3-chloro-5-fluoro-6-(4-chloro-2-fluoro-3-methoxyphenyl)pyridine-2-carboxylic acid or a derivative thereof and certain PS II inhibitors” (Dow Agrosciences LLC, priority 2012, dated 2014) are described below.

Test [1] deals with CHEAL (Chenopodium album, common lambsquarters). Kind of test: Postemergence herbicidal activity of mixtures in cereal crops, greenhouse. Format: in vivo, Chenopodium album L. The protocol: Seeds of the desired test plant species were planted in Sun Gro MetroMix® 306 planting mixture, which typically has a pH of 6.0 to 6.8 and an organic matter content of about 30 percent, in plastic pots with a surface area of 103.2 square centimeters (cm^2). When required to ensure good germination and healthy plants, a fungicide treatment and/or other chemical or physical treatment was applied. The plants were grown for 7-36 days in a greenhouse with an approximate 14 hour photoperiod which was maintained at about 18° C. during the day and about 17° C. during the night. Nutrients and water were added on a regular basis and supplemental lighting was provided with overhead metal halide 1000-Watt lamps as necessary. The plants were employed for testing when they reached the second or third true leaf stage.
Treatments consisted of the benzyl ester of 4-amino-3-chloro-5-fluoro-6-(4-chloro-2-fluoro-3-methoxy-phenyl)pyridine-2-carboxylic acid (Compound A), formulated as an SC, a second cereal herbicide alone and then both in combination.
Other herbicidal components were applied on an active ingredient basis and included PSII-inhibiting herbicides.
Measured aliquots of benzyl ester of 4-amino-3-chloro-5-fluoro-6-(4-chloro-2-fluoro-3-methoxy-phenyl)pyridine-2-carboxylic acid (Compound A) were placed in 25 milliliter (mL) glass vials and diluted in a volume of 1.25% (v/v) Agri-Dex® crop oil concentrate to obtain stock solutions. Compound requirements are based upon a 12 mL application volume at a rate of 187 liters per hectare (L/ha). Spray solutions of the second cereal herbicide and experimental compound mixtures were prepared by adding the stock solutions to the appropriate amount of dilution solution to form 12 mL spray solution with active ingredients in two- and three-way combinations. Formulated compounds were applied to the plant material with an overhead Mandel track sprayer equipped with an 8002E nozzle calibrated to deliver 187 L/ha over an application area of 0.503 square meters (m^2) at a spray height of 18 inches (46 cm) above average plant canopy. Control plants were sprayed in the same manner with the solvent blank.
The treated plants and control plants were placed in a greenhouse as described above and watered by sub-irrigation to prevent wash-off of the test compounds. After 20-22 days, the condition of the test plants as compared with that of the control plants was determined visually and scored on a scale of 0 to 100 percent where 0 corresponds to no injury and 100 corresponds to complete kill.
Colby's equation was used to determine the herbicidal effects expected from the mixtures (Colby, S. R. 1967. Calculation of the synergistic and antagonistic response of herbicide combinations. Weeds 15:20-22). […]

The test system of test [2] is IPOHE (Ipomoea hederacea, ivyleaf morningglory). Briefly: Pre-emergence soil-applied mixtures, greenhouse. Format: in vivo, Ipomoea hederacea (L.) Jacq. From the text:
(§1) Seeds or nutlets of the desired test plant species were planted in a soil matrix prepared by mixing a loam soil (32 percent silt, 23 percent clay, and 45 percent sand, with a pH of about 6.5 and an organic matter content of about 1.9 percent) and calcareous grit in an 80 to 20 ratio. The soil matrix was contained in plastic pots with a volume of 1 quart and a surface area of 83.6 square centimeters (cm^2).
(§2) Treatments consisted of the benzyl ester of 4-amino-3-chloro-5-fluoro-6-(4-chloro-2-fluoro-3-methoxy-phenyl)pyridine-2-carboxylic acid (compound A) formulated as an SC (suspension concentrate) and various herbicidal components alone and in combination. Forms of compound A were applied on an acid equivalent basis.
(§3) Other herbicidal components were applied on an acid equivalent or active ingredient basis and included the PSII-inhibiting herbicides, atrazine formulated as Atrazine® 90WDG, metribuzin formulated as Metribuzin 75DF, simazine formulated as Princep Caliber 90, tebuthiuron formulated as Spike 80DF, cyanazine (technical grade material), hexazinone (technical grade material), linuron (technical grade material), terbuthylazine (technical grade material), and diuron formulated as Diuron 4L.
(§4) Treatment requirements were calculated based upon the rates being tested, the concentration of active ingredient or acid equivalent in the formulation, and a 12 mL application volume at a rate of 187 L/ha.
For treatments comprised of formulated compounds, measured amounts of compounds were placed individually in 25 mL glass vials and diluted in a volume of 1.25% (v/v) Agri-Dex® crop oil concentrate (COC) to obtain 12× stock solutions. […] Application solutions were prepared by adding an appropriate amount of each stock solution (e.g., 1 mL) and diluted to the appropriate final concentrations with the addition of 10 mL of an aqueous mixture of 1.25% (v/v) COC so that the final spray solutions contained 1.25% (v/v) COC.
For treatments comprised of technical compounds, weighed amounts can be placed individually in 25 mL glass vials and dissolved in a volume of 97:3 (v/v) acetone/DMSO to obtain 12× stock solutions. […]
(§5) For treatments comprised of formulated and technical compounds, weighed amounts of the technical materials can be placed individually in 25 mL glass vials and dissolved in a volume of 97:3 (v/v) acetone/DMSO to obtain 12× stock solutions, and measured amounts of the formulated compounds can be placed individually in 25 mL glass vials and diluted in a volume of 1.5% (v/v) COC or water to obtain 12× stock solutions. […]

The test system of test [3] is ECHCO (Echinochloa colonum, junglerice). Briefly: Pre-emergence soil-applied mixtures, greenhouse. Format: in vivo, Echinochloa colonum (L.) Link.
From the text: as §1, §2, §3, §4
(§6) For treatments comprised of formulated compounds, measured amounts of compounds were placed individually in 25 mL glass vials and diluted in a volume of 1.25% (v/v) Agri-Dex® crop oil concentrate (COC) to obtain 12× stock solutions. […]
as §5

The test system of test [4] is SETVI (Setaria viridis, green foxtail). Briefly: Pre-emergence soil-applied mixtures, greenhouse. It counts as in vivo, Setaria viridis (L.) Beauv.
From the text: as §1, §2, §3, §4, §6, §5

Setting [5] is: Compound A Benzyl Ester 16 g ae/ha.
The mark [6] stands for this setting: Compound A Benzyl Ester 32 g ae/ha.

As to `COc1c(Cl)ccc(-c2nc(C(=O)OCc3ccccc3)c(Cl)c(N)c2F)c1F` [Compound A Benzyl Ester, benzyl ester of 4-amino-3-chloro-5-fluoro-6-(4-chloro-2-fluoro-3-methoxy-phenyl)pyridine-2-carboxylic acid], the “Visual Weed Control (%)-21 DAA CHEAL Obs” value in test [1] (Compound A Benzyl Ester 2.5 g ai/ha) is on record as 50%; in test [1] (Compound A Benzyl Ester 5 g ai/ha) it was 58%. In addition, the “Visual Weed Control (%) - 33 DAA IPOHE Obs” value in test [2] (setting [5]) is on record as 0%; in test [2] (setting [6]) it was 5%. Besides, the “Visual Weed Control (%)-29 DAA ECHCO Obs” value in test [3] (setting [5]) was 0%; in test [3] (setting [6]), 5%. Further, the “Visual Weed Control (%)-29 DAA SETVI Obs” value in test [4] (setting [5]) and in test [4] (setting [6]) was 10% in each case.
